# The source made the active and inactive calls. Unless noted, the rule behind the calls is not given here.
# Experiments:
# [1] = Cytotoxicity against human HeLa cells assessed as reduction in cell viability measured after 24 hrs by celltiter-blue assay; assay type: cell-based
# dengue virus type 2 [2] = experiment: Antiviral activity against DENV2 infected in human HuH7 cells assessed as reduction in virus titer at 10 uM measured after 48 hrs relative to control; assay type: functional; settings: Huh-7, 48 h
# [3] = Permeability of the compound assessed as mass retention at 200 uM measured after 5 hrs at pH 7.4 by PAMPA; assay type: ADME; settings: pH 7.4, 5 h
# [4] = molecular target: Genome polyprotein (dengue virus type 2) (UniProt P29990); experiment: Inhibition of Dengue virus serotype 2 NS2B-NS3 protease expressed in Escherichia coli BL21 lambda (DE3) cells at 50 uM using Abz-Nle-Lys-Arg-Arg-Ser-3-(NO2)Tyr as substrate preincubated for 15 mins followed by substrate addition and measured for 15 mins by FRET assay relative to control
# Genome polyprotein [5] = molecular target: T1, Genome polyprotein (dengue virus type 2, UniProt P29990); experiment: Inhibition of Dengue virus serotype 2 NS2B-NS3 protease transfected in human HeLa cells measured after 24 hrs by Renilla-luciferase reporter gene assay; assay type: cell-based
# Genome polyprotein [6] = molecular target: T1, Genome polyprotein; experiment: Inhibition of Dengue virus serotype 2 NS2B-NS3 protease expressed in Escherichia coli BL21 lambda (DE3) cells using Abz-Nle-Lys-Arg-Arg-Ser-3-(NO2)Tyr as substrate preincubated for 15 mins followed by substrate addition and measured for 15 mins by FRET assay
# Huh-7 = experiment: Cytotoxicity against human HuH7 cells assessed as reduction in cell viability at 12 uM measured after 48 hrs by celltiter-blue assay; assay type: cell-based; settings: huh-7, 48 h
# [7] = Drug metabolism in pH 9 Tris-HCl buffer assessed as racemization incubated for 96 hrs at 37 degC RP-HPLC analysis; assay type: physicochemical; settings: pH 9, 96 h
# [8] = Drug metabolism in pH13 sodium hydroxide solution assessed as racemization incubated for 96 hrs at 37 degC RP-HPLC analysis; assay type: physicochemical; settings: pH 13, 96 h
# [9] = molecular target: Genome polyprotein (West Nile virus) (UniProt P06935); experiment: Inhibition of West Nile virus NS2B-NS3 protease expressed in Escherichia coli BL21 lambda (DE3) cells at 50 uM using Abz-Gly-Leu-Lys-Arg-Gly-Gly-3-(NO2)Tyr as substrate preincubated for 15 mins followed by substrate addition measured for 15 mins by fluorimetric analysis relative to control
# [10] = Drug metabolism in pH 7 DENV2proHeLa medium assessed as racemization incubated for 96 hrs at 37 degC RP-HPLC analysis; assay type: physicochemical; settings: pH 7, 96 h
# [11] = Permeability of the compound at 200 uM measured after 5 hrs at pH 7.4 by PAMPA; assay type: ADME; settings: read-out: permeability
# [12] = Drug metabolism in pH 7.4 phosphate buffered saline assessed as racemization incubated for 96 hrs at 37 degC RP-HPLC analysis; assay type: physicochemical; settings: buffer, pH 7.4, 96 h
# [13] = Drug metabolism in pH13 sodium hydroxide solution assessed as racemization incubated for 96 hrs at room temperature RP-HPLC analysis; assay type: physicochemical; settings: pH 13, 96 h
# dengue virus type 2 [14] = experiment: Antiviral activity against DENV2 infected in human HuH7 cells assessed as reduction in virus titer measured after 48 hrs; assay type: functional, organism-based; settings: Huh-7, 48 h
# [15] = Permeability of the compound assessed as drug level in donor plate at 200 uM measured after 5 hrs at pH 7.4 by PAMPA; assay type: ADME; settings: pH 7.4, 5 h
# Trypsin = Trypsin (Homo sapiens, UniProt P07477+P07478+P35030); experiment: Inhibition of trypsin (unknown origin) at 50 uM using Boc-Val-Pro-Arg-AMC as substrate preincubated for 15 mins followed by substrate addition and measured for 15 mins by fluorimetric assay relative to control; assay type: protein assay; settings: 0.25 h, 50 µM
# [16] = molecular target: Genome polyprotein (dengue virus type 2) (UniProt P29990); experiment: Inhibition of Dengue virus serotype 2 NS2B-NS3 protease transfected in human HeLa cells at 12.5 uM measured after 24 hrs by Renilla-luciferase reporter gene assay relative to control; assay type: cell-based
# [17] = molecular target: Genome polyprotein (dengue virus type 2) (UniProt P29990); experiment: Competitive inhibition of Dengue virus serotype 2 NS2B-NS3 protease expressed in Escherichia coli BL21 lambda (DE3) cells using varying levels of Abz-Nle-Lys-Arg-Arg-Ser-3-(NO2)Tyr as substrate by Cheng-Prusoff plot analysis
# Genome polyprotein [18] = molecular target: Genome polyprotein (West Nile virus, UniProt P06935); experiment: Inhibition of West Nile virus NS2B-NS3 protease expressed in Escherichia coli BL21 lambda (DE3) cells using Abz-Gly-Leu-Lys-Arg-Gly-Gly-3-(NO2)Tyr as substrate preincubated for 15 mins followed by substrate addition measured for 15 mins by fluorimetric analysis
# Prothrombin = Prothrombin (Homo sapiens, UniProt P00734); experiment: Inhibition of thrombin (unknown origin) at 25 uM using Boc-Val-Pro-Arg-AMC as substrate preincubated for 15 mins followed by substrate addition and measured for 15 mins by fluorimetric assay; settings: 0.25 h
# [19] = molecular target: Genome polyprotein (West Nile virus) (UniProt P06935); experiment: Competitive inhibition of West Nile virus NS2B-NS3 protease expressed in Escherichia coli BL21 lambda (DE3) cells using varying levels of Abz-Gly-Leu-Lys-Arg-Gly-Gly-3-(NO2)Tyr as substrate by Cheng-Prusoff plot analysis
# [20] = Permeability of the compound assessed as drug level in acceptor plate at 200 uM measured after 5 hrs at pH 7.4 by PAMPA; assay type: ADME; settings: pH 7.4, 5 h
# Sequence of Genome polyprotein (West Nile virus, UniProt P06935) (P06935 1371-1501 limits assumed): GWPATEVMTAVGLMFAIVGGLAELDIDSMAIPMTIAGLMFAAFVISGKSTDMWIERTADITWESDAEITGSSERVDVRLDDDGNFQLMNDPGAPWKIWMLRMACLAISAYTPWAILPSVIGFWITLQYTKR
# Sequence of Genome polyprotein (West Nile virus, UniProt P06935) (P06935 1502-2120 limits assumed): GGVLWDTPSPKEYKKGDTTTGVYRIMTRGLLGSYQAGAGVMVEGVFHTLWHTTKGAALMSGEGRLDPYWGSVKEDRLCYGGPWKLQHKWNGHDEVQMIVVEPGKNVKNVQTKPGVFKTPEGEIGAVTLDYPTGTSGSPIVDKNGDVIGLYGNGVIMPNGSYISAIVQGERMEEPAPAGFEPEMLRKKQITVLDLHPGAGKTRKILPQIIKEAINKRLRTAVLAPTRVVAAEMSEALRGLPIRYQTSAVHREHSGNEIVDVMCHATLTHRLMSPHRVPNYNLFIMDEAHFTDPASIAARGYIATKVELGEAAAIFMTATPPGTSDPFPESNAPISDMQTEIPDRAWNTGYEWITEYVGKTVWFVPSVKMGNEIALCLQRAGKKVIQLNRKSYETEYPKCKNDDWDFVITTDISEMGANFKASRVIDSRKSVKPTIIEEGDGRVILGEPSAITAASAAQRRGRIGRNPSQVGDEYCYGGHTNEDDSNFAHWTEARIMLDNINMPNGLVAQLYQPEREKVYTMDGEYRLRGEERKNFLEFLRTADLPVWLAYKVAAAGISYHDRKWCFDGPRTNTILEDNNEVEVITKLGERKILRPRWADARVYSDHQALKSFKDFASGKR
# Sequence of Genome polyprotein (West Nile virus) (P06935 whole entry): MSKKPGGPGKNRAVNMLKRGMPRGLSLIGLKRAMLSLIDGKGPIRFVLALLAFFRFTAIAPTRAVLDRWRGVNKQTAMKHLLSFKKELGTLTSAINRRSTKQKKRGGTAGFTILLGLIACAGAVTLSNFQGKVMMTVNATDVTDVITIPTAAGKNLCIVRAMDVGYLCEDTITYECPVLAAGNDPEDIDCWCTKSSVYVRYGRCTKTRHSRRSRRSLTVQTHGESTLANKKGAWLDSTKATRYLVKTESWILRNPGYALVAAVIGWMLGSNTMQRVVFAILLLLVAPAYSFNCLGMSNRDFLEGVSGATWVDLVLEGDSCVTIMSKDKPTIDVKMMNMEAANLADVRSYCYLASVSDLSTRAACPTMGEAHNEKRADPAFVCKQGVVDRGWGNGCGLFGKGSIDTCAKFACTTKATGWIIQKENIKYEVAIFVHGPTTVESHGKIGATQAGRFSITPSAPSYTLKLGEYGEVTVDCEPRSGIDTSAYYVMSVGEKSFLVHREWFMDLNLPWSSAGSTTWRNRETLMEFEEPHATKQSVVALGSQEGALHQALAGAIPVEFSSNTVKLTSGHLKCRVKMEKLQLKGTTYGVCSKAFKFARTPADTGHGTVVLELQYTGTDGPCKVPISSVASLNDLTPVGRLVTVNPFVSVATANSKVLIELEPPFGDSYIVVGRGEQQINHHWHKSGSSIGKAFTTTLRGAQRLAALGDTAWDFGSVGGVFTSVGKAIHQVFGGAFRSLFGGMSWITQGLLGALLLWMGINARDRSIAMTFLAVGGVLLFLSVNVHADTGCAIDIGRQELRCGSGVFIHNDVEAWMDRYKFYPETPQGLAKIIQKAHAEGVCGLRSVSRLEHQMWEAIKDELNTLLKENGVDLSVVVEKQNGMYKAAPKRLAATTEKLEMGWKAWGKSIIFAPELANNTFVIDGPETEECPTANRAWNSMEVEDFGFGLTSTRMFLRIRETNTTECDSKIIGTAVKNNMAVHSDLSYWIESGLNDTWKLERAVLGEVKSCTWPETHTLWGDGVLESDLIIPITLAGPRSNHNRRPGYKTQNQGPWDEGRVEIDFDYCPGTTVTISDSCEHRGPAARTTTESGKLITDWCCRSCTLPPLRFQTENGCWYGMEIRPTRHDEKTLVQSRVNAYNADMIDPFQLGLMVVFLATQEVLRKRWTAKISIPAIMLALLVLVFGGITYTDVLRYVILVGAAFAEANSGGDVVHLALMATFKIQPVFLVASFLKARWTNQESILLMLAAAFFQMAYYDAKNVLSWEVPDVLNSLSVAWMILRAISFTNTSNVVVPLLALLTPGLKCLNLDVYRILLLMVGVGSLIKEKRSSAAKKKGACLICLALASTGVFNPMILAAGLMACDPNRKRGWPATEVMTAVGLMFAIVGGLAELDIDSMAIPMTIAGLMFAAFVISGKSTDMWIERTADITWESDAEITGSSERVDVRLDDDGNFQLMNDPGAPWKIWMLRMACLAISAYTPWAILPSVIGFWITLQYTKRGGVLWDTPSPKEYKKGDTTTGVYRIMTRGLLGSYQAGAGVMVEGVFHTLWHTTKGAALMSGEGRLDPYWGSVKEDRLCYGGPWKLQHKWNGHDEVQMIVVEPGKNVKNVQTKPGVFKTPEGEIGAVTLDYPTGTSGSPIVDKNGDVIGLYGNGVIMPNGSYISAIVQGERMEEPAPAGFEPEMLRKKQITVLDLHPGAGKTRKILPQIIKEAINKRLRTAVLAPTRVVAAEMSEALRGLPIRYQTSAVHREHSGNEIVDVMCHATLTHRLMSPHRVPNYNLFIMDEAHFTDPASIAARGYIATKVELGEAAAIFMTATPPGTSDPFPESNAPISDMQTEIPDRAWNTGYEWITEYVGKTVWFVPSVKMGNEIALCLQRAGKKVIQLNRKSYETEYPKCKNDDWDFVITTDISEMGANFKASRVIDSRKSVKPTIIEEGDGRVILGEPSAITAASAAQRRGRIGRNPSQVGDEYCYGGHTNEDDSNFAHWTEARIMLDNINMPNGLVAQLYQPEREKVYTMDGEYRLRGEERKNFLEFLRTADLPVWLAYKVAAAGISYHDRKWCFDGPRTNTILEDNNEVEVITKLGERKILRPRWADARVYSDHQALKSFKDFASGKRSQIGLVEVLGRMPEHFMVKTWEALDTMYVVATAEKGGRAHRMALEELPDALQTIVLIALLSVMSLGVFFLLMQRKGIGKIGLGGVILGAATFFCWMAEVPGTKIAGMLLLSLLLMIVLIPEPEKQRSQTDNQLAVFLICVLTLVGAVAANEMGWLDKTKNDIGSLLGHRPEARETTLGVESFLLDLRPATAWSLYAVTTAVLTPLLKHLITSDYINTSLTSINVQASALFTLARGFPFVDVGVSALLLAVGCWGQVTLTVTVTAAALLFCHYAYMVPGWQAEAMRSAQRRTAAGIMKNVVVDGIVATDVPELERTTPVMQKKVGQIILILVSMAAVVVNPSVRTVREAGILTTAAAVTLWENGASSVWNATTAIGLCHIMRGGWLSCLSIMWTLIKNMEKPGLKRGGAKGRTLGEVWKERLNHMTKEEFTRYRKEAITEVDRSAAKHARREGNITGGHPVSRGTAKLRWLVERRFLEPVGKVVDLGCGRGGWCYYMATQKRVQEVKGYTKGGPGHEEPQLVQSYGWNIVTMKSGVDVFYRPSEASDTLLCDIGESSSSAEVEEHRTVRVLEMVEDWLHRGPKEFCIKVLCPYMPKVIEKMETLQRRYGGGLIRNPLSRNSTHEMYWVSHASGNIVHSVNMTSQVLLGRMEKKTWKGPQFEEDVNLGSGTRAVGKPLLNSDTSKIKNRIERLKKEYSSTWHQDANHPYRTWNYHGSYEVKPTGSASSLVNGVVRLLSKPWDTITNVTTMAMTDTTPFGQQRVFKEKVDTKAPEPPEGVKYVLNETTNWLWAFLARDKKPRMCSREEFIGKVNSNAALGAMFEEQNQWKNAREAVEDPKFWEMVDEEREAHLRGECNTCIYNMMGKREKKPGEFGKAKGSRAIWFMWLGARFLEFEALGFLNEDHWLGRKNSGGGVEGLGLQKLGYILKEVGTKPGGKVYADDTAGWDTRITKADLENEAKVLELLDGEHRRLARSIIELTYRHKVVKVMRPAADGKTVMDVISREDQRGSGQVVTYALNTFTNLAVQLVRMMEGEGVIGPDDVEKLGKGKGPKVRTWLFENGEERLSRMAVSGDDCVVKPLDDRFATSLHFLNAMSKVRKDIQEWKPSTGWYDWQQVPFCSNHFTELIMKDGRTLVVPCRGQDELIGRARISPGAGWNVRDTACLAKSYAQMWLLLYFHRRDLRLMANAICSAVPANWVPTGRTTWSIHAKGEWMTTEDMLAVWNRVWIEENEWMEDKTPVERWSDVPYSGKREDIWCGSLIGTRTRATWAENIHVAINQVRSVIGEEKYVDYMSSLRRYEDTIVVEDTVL
structure (smiles),measurement,setting,value
CCCCCC(=O)N[C@H](C(=O)NCc1ccc(NC(=N)N)cc1)c1ccc(OCc2ccccc2)cc1.O=C(O)C(F)(F)F,CC50 at 24 h,[1],> 50 µM
same,inhibition at 10 µM,dengue virus type 2 [2],84.5%
same,R%,[3],12%
same,inhibition,[4],95.1%
same,EC50,Genome polyprotein [5],0.49 µM
same,IC50,Genome polyprotein [6],11 µM
same,Ki,Genome polyprotein [6],9.8 µM
same,Activity,Huh-7,Non-Toxic
same,Drug metabolism,[7],Metabolite_Notdetected
same,Drug metabolism,[8],Metabolite_Detected
same,inhibition,[9],102%
same,Drug metabolism,[10],Metabolite_Notdetected
same,"Papp at 5 h, 200 µM",[11],16 nm/s
same,Drug metabolism,[12],Metabolite_Notdetected
same,Drug metabolism,[13],Metabolite_Detected
same,EC50,dengue virus type 2 [14],0.89 µM
same,Drug uptake,[15],171 µM
same,inhibition (INH),Trypsin,Not Active
same,inhibition,[16],79.8%
same,inhibition,[17],Active
same,IC50,Genome polyprotein [18],13 µM
same,Ki,Genome polyprotein [18],12 to 12.4 µM
same,inhibition (INH),Prothrombin,Not Active
same,inhibition,[19],Active
same,Drug uptake,[20],7.5 µM

# From ChEMBL document CHEMBL4619777, “A New Class of Dengue and West Nile Virus Protease Inhibitors with Submicromolar Activity in Reporter Gene DENV-2 Protease and Viral Replication Assays” (J Med Chem, 2020)
